Reference: patent US20250368647A1, “NITROGEN CONTAINING CONDENSED 2,3-DIHYDROQUINAZOLINONE COMPOUNDS AS NAV1.8 INHIBITORS” (GLAXOSMITHKLINE INTELLECTUAL PROPERTY DEVELOPMENT LIMITED, priority 2022, published 2025)

biological target: human Nav1.8 (Homo sapiens (Human), UniProt Q9Y5Y9); assay: QPatch 48 HTX voltage-clamp electrophysiology, half inactivation state (V1/2) protocol, HEK293-Nav1.8 cells; format: cell-based; conditions: HEK293 cells expressing human Nav1.8, human Navβ1 and human TREK1, P2 current
Experimental: Human embryonic kidney 293 cells (HEK293) expressing human Nav1.8, human Navβ1 and human TREK1 (HEK293-Nav1.8) were grown in T150 cell culture flasks at 37° C., 5% CO2 incubator. HEK293-Nav1.8 were passaged every 2-3 days when confluency reached 80-90% in T150 cell culture flasks.
Pharmacological assessment of compounds of the invention was performed using the QPatch 48 HTX electrophysiological platform. HEK293-Nav1.8 cells were prepared on the day of use by removing culture media, washing in DPBS, adding Accutase (2 mL to cover the surface, aspirate 1 mL then 1-2 minutes at 37° C.) followed by addition of CHO-SFM II to stop the enzyme digestion and in order to obtain a suspension of 3×10^6 cell/mL.
Compounds of the invention were prepared in an extracellular solution of the following composition: NaCl (145 mM), KCl (4 mM), CaCl2) (2 mM), MgCl (2 mM), HEPES (1 mM), Glucose (10 mM), pH 7.4 with NaOH Osmolality 300 mOsM/L. An intracellular solution of the following composition was used: CsF (115 mM), CsCl (20 mM), NaCl (5 mM), EGTA (10 mM), HEPES (10 mM), Sucrose (20 mM), pH 7.2 with CsOH Osmolality 310 mOsm/L.
Utilizing the voltage-clamp mode in the QPatch 48 HTX system a half inactivation state voltage protocol (V1/2) was used to determine pharmacological activity of compounds of the invention at Nav1.8 ion channels. A V1/2 protocol was utilized with the following voltage steps: a holding voltage of −100 mV was established followed by a 20 ms voltage step to 0 mV (P1), followed by an inactivating voltage step at −46 mV for 8 seconds, followed by a step to −100 mV for 20 ms, before a 20 ms step to 0 mV (P2), then returned to the holding voltage of −100 mV. This voltage protocol was repeated at a frequency of every 15 seconds, the current magnitude was quantified at the P2 step throughout the recording. Inhibition of the measured current amplitude with compounds of the invention was analyzed by fitting a 4-6 points dose-response curve allowing determination of the fifty percent inhibition concentration (IC50). P2 currents were normalized according to measurements made at baseline (Baseline, vehicle only), after compound (Input, at each test concentration), and after positive reference compound (FullResponse, to achieve complete block), fit to the following equation: […]
To assess current run-down over the course of the experiment vehicle-only wells were utilized and the normalized current with vehicle-only (n.IVEH) was determined. To correct the compound response for run-down, the currents were corrected according to the following formula: […]
Compound inhibition was fitted to the following Hill Equation to estimate the half maximal inhibition concentration (IC50)
[formula] • where Y is the normalized run-down corrected inhibition relative to the vehicle control (equivalent to n.IRD_Correct), C the test compound concentration, IC50 the concentration of test compound to inhibit the sodium current by 50%, and h the Hill coefficient.

Chain of human Nav1.8 (Q9Y5Y9 whole entry): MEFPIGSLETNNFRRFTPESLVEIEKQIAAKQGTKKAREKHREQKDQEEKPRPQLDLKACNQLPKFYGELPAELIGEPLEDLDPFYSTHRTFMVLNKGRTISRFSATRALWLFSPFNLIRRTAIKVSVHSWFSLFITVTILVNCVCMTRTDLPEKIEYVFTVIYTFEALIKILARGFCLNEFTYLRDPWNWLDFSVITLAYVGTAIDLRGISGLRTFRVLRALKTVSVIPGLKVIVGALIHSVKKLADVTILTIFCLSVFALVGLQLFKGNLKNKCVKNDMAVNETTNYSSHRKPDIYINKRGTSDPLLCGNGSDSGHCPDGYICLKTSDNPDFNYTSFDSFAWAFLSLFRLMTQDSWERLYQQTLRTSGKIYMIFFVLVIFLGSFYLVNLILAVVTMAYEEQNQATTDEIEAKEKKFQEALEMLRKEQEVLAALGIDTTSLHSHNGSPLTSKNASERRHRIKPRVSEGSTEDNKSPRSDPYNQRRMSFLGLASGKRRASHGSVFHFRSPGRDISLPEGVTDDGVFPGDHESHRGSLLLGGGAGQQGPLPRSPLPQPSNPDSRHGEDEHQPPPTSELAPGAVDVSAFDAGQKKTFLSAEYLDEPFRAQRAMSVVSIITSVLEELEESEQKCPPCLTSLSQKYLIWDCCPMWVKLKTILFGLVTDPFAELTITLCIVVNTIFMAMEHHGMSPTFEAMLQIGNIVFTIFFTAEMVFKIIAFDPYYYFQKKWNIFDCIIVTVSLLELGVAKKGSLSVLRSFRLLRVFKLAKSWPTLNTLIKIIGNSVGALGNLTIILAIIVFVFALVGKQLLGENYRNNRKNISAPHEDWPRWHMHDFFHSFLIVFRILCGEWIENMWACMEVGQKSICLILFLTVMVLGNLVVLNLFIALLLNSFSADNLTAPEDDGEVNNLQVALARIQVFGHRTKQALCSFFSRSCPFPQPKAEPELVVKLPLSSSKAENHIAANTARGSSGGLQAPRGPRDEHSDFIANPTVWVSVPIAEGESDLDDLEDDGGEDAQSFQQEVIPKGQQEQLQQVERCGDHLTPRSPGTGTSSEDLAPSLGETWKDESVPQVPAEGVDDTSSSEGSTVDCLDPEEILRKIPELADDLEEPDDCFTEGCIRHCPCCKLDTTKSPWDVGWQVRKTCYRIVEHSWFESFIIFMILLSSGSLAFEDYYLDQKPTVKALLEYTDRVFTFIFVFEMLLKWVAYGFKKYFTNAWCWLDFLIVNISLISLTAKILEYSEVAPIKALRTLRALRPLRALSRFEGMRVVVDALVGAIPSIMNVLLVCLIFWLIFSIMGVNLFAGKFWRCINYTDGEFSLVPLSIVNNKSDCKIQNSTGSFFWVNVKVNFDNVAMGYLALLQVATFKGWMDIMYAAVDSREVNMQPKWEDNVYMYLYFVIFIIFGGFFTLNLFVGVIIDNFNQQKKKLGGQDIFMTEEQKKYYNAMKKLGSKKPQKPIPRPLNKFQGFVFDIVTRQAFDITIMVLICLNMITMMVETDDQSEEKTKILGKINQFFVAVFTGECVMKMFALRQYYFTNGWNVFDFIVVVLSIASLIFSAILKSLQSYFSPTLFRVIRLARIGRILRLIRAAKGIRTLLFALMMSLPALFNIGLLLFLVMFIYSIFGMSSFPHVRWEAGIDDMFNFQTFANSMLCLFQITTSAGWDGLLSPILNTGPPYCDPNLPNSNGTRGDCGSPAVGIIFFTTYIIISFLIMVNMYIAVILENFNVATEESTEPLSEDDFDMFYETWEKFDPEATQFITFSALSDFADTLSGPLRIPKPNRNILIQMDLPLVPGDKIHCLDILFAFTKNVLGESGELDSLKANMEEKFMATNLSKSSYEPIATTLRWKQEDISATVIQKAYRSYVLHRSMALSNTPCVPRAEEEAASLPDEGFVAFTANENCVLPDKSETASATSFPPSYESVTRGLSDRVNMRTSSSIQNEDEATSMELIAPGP
Chain of human Nav1.8 (Q07699 19-218 partner): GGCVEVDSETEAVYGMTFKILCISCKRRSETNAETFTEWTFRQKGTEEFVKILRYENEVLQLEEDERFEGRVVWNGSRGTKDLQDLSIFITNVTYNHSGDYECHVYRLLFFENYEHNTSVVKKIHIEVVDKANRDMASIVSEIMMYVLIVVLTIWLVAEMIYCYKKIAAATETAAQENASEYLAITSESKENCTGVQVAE

First: Cc1c(F)ccc2c1CNCCc1[nH]c(=O)ccc1N1CN2c2cc(F)c(F)cc2C1=O.Cl [Example 68, 2,3,8-Trifluoro-9-methyl-10,11,12,13-tetrahydro-19H-5,18-methanodibenzo[c,f]pyrido[3,2-j][1,5,9]triazacyclotridecine-15,19(14H)-dione hydrochloride]
Second: Cl.O=C1c2cc(F)c(F)cc2N2CN1c1ccc(=O)[nH]c1CCNCc1c2ccc(Cl)c1F [Example 74, 8-Chloro-2,3,9-trifluoro-10,11,12,13-tetrahydro-19H-5,18-methanodibenzo-[c,f]pyrido[3,2-j][1,5,9]triazacyclotridecine-15,19(14H)-dione hydrochloride]
The “Nav1.8, pIC50” value of the first is higher: 7.7 for the first, 7.3 for the second.

Going from `Cl.O=C1c2cc(F)c(F)cc2N2CN1c1ccc(=O)[nH]c1CCNCc1c(OC(F)F)cccc12` [Example 75, 9-(Difluoromethoxy)-2,3-difluoro-10,11,12,13-tetrahydro-19H-5,18-methanodibenzo[c,f]pyrido[3,2-j][1,5,9]triazacyclotridecine-15,19(14H)-dione hydrochloride] to `Cl.O=C1c2cc(F)c(F)cc2N2CN1c1ccc(=O)[nH]c1CCNCc1cc(Cl)ccc12` [Example 76, 8-Chloro-2,3-difluoro-10,11,12,13-tetrahydro-19H-5,18-methanodibenzo[c,f]pyrido[3,2-j][1,5,9]triazacyclotridecine-15,19(14H)-dione hydrochloride], the “Nav1.8, pIC50” value rises from 5.4 to 7.2.

First: O=C1c2cc(F)c(C(F)(F)F)cc2N2CN1c1ccc(=O)[nH]c1NCCCc1cc(F)ccc12 [Example 32, 2,8-Difluoro-3-(trifluoromethyl)-10,11,12,13-tetrahydro-19H-5,18-methanodibenzo[f,i]pyrido[2,3,-b][1,4,8]triazacyclotridecine-15,19(14H)-dione]
Second: C[C@H]1NCCCc2[nH]c(=O)ccc2N2CN(c3cc(C(F)(F)F)c(F)cc3C2=O)c2ccc(F)cc21 [Example 136, (4R)-2^6,3^4-Difluoro-4-methyl-2^7-(trifluoromethyl)-1^1,1^2,2^1,2^2,2^3,2^4-hexahydro-5-aza-2(3,1)-quinazolina-1(5,6)-pyridina-3(1,2)-benzenacyclooctaphane-1^2,2^4-dione]
The “Nav1.8, pIC50” value of the first is higher: 8.4 for the first, 6.9 for the second.

Going from `O=C1c2cc(C(F)(F)F)ccc2N2CN1c1cc(Cl)c(=O)[nH]c1NCCCc1cc(F)ccc12` [Example 29, 16-Chloro-8-fluoro-2-(trifluoromethyl)-10,11,12,13-tetrahydro-19H-5,18-methanodibenzo[f,i]pyrido[2,3,-b][1,4,8]triazacyclotridecine-15,19(14H)-dione] to `O=C1c2cc(F)c(Cl)cc2N2CN1c1ccc(=O)[nH]c1NCCCc1c2ccc(F)c1F` [Example 94, 3-Chloro-2,8,9-trifluoro-10,11,12,13-tetrahydro-19H-5,18-methanodibenzo[f,i]pyrido[2,3-b][1,4,8]triazacyclotridecine-15,19(14H)-dione], the “Nav1.8, pIC50” value rises from 7.1 to 8.1.

First: O=C1c2ccc(C(F)(F)F)nc2N2CN1c1ccc(=O)[nH]c1CCCCCc1cc(F)ccc12 [Example 22, 3^4-Fluoro-2^7-(trifluoromethyl)-1^1,1^2,2^1,2^2,2^3,2^4-hexahydro-2(3,1)-pyrido[2,3-d]pyrimidina-1(5,6)-pyridina-3(1,2)-benzenacyclooctaphane-1^2,2^4-dione]
Second: O=C1c2cc(C(F)(F)F)ncc2N2CN1c1ccc(=O)[nH]c1NCCCc1c2ccc(F)c1F [Example 38, 8,9-Diluoro-2-(trifluoromethyl)-10,11,12,13-tetrahydro-19H-5,18-methanodibenzo[i]dipyrido[2,3,-b:4′,3′-f][1,4,8]triazacyclotridecine-15,19(14H)-dione]
The “Nav1.8, pIC50” value of the first is higher: 7.6 for the first, 6.8 for the second.

In the case of `CCC1NCCc2[nH]c(=O)ccc2N2CN(c3cc(C(F)(F)F)c(F)cc3C2=O)c2ccc(F)cc21.Cl` (centres unmarked) [Example 126, 10-Ethyl-2,8-difluoro-3-(trifluoromethyl)-10,11,12,13-tetrahydro-19H-5,18-methanodibenzo[c,f]pyrido[3,2-j][1,5,9]triazacyclotridecine-15,19(14H)-dione hydrochloride], the “Nav1.8, pIC50” value is reported as 7.
